Laboratory results reported in PubChem BioAssay AID328 (DTP/NCI, 2004).
Several values for one entry are separate records, joined by “and”; a condition that tells them apart may be missing. Identical values can stand only once. Toxic doses and inconclusive results are not listed.

System: BDF1 mice, P388 leukemia ip, median survival T/C
Assay: NCI In Vivo Anticancer Drug Screen. Data for tumor model P388 Leukemia (intraperitoneal) in B6D2F1 (BDF1) mice
Details: endpoint: median survival time, higher = longer survival
Outline: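 Each value expresses how treatment altered survival: treated-mouse outcome over vehicle-mouse outcome, both groups bearing the transplanted tumour.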

[1] = dose: 50.0 mg/kg/injection, schedule: Q01DX009 (ip), vehicle: saline
[2] = dose: 100.0 mg/kg/injection, schedule: Q04DX003 (ip), vehicle: saline with Tween-80
[3] = dose: 200.0 mg/kg/injection, schedule: Q04DX003 (ip), vehicle: saline with Tween-80
[4] = dose: 400.0 mg/kg/injection, schedule: Q04DX003 (ip), vehicle: saline with Tween-80
[5] = dose: 50.0 mg/kg/injection, schedule: Q01DX009 (ip), vehicle: saline with Tween-80
[6] = dose: 50.0 mg/kg/injection, schedule: Q01DX009 (ip), vehicle: Klucel (hydroxypropylcellulose) (HPC)
[7] = dose: 100.0 mg/kg/injection, schedule: Q04DX003 (ip), vehicle: Klucel (hydroxypropylcellulose) (HPC)
[8] = dose: 200.0 mg/kg/injection, schedule: Q04DX003 (ip), vehicle: Klucel (hydroxypropylcellulose) (HPC)
[9] = dose: 400.0 mg/kg/injection, schedule: Q04DX003 (ip), vehicle: Klucel (hydroxypropylcellulose) (HPC)

With C/C=C(\C)C(=O)OC1C(C)C2(O)C(C=C(CO)CC3(O)C(=O)C(C)=CC32)C2C(C)(C)C12OC(=O)CCCCCCCCC (configuration not stated) the T/C (dose: 0.01 mg/kg/injection, schedule: Q01DX009 (ip), vehicle: gum acacia) was 98 % of control, the T/C (dose: 0.01 mg/kg/injection, schedule: Q01DX009 (ip), vehicle: saline + alcohol) was 90 % of control and the T/C (dose: 0.01 mg/kg/injection, schedule: Q01DX009 (ip), vehicle: saline with Tween-80) was 118 % of control. For the same compound, the T/C (dose: 0.02 mg/kg/injection, schedule: Q01DX009 (ip), vehicle: gum acacia) was 93 % of control, the T/C (dose: 0.03 mg/kg/injection, schedule: Q01DX009 (ip), vehicle: Klucel (hydroxypropylcellulose) (HPC)) was 110 % of control and the T/C (dose: 0.03 mg/kg/injection, schedule: Q01DX009 (ip), vehicle: gum acacia) was 111 % of control. The T/C (dose: 0.03 mg/kg/injection, schedule: Q01DX009 (ip), vehicle: saline + alcohol) was 93 % of control and 108 % of control, the T/C (dose: 0.06 mg/kg/injection, schedule: Q01DX009 (ip), vehicle: Klucel (hydroxypropylcellulose) (HPC)) was 112 % of control and the T/C (dose: 0.06 mg/kg/injection, schedule: Q01DX009 (ip), vehicle: saline + alcohol) was 90 % of control and 108 % of control. For the same compound, the T/C (dose: 0.12 mg/kg/injection, schedule: Q01DX009 (ip), vehicle: Klucel (hydroxypropylcellulose) (HPC)) was 112 % of control, the T/C (dose: 0.25 mg/kg/injection, schedule: Q01DX009 (ip), vehicle: Klucel (hydroxypropylcellulose) (HPC)) was 112 % of control and the T/C (dose: 0.25 mg/kg/injection, schedule: Q01DX009 (ip), vehicle: saline + alcohol) was 163 % of control. For the same compound, the T/C (dose: 0.5 mg/kg/injection, schedule: Q01DX009 (ip), vehicle: Klucel (hydroxypropylcellulose) (HPC)) was 119 % of control and the T/C (dose: 1.0 mg/kg/injection, schedule: Q01DX009 (ip), vehicle: Klucel (hydroxypropylcellulose) (HPC)) was 91 % of control.
With CN(C)CC(Cl)CCl (configuration not stated) the T/C [1] was 103 % of control and 118 % of control, the T/C (dose: 178.0 mg/kg/injection, schedule: Q01DX009 (ip), vehicle: saline) was 178 % of control and the T/C (dose: 200.0 mg/kg/injection, schedule: Q01DX009 (ip), vehicle: saline) was 118 % of control and 168 % of control and 209 % of control. For the same compound, the T/C (dose: 266.0 mg/kg/injection, schedule: Q01DX009 (ip), vehicle: saline) was 190 % of control and the T/C (dose: 400.0 mg/kg/injection, schedule: Q01DX009 (ip), vehicle: saline) was 226 % of control and 200 % of control.
For O=NN(CCCl)C(=O)c1cc(Cl)cc(Cl)c1, the T/C (dose: 25.0 mg/kg/injection, schedule: Q04DX003 (ip), vehicle: saline with Tween-80) was 104 % of control, the T/C (dose: 50.0 mg/kg/injection, schedule: Q04DX003 (ip), vehicle: saline with Tween-80) was 104 % of control and the T/C [2] was 100 % of control and 118 % of control. The T/C [3] was 100 % of control and 104 % of control and the T/C [4] was 100 % of control.
For OCCNCCNc1ccnc2cc(Cl)ccc12, the T/C (dose: 12.5 mg/kg/injection, schedule: Q01DX009 (ip), vehicle: saline) was 102 % of control, the T/C (dose: 25.0 mg/kg/injection, schedule: Q01DX009 (ip), vehicle: saline) was 115 % of control and the T/C [1] was 116 % of control. The T/C (dose: 100.0 mg/kg/injection, schedule: Q01DX009 (ip), vehicle: saline) was 118 % of control.
CCCCCCOB(OCCCCCC)OCCCCCC was tested, and the T/C (dose: 22.5 mg/kg/injection, schedule: Q01DX009 (ip), vehicle: saline with Tween-80) was 94 % of control, the T/C (dose: 45.0 mg/kg/injection, schedule: Q01DX009 (ip), vehicle: saline with Tween-80) was 97 % of control and the T/C (dose: 90.0 mg/kg/injection, schedule: Q01DX009 (ip), vehicle: saline with Tween-80) was 102 % of control.
For C=C1C(=O)O[C@@H]2/C=C(/C)[C@@]3(O)C=C[C@](C)(C[C@@H](OC(=O)/C(=C\C)COC(C)=O)[C@@H]12)O3, the T/C (dose: 0.38 mg/kg/injection, schedule: Q01DX010 (ip), vehicle: carboxymethylcellulose (CMC)) was 90 % of control, the T/C (dose: 0.75 mg/kg/injection, schedule: Q01DX010 (ip), vehicle: carboxymethylcellulose (CMC)) was 95 % of control and the T/C (dose: 1.0 mg/kg/injection, schedule: Q01DX009 (ip), vehicle: carboxymethylcellulose (CMC)) was 103 % of control. For the same compound, the T/C (dose: 1.5 mg/kg/injection, schedule: Q01DX010 (ip), vehicle: carboxymethylcellulose (CMC)) was 109 % of control, the T/C (dose: 2.5 mg/kg/injection, schedule: Q01DX010 (ip), vehicle: saline) was 118 % of control and the T/C (dose: 3.0 mg/kg/injection, schedule: Q01DX010 (ip), vehicle: carboxymethylcellulose (CMC)) was 104 % of control. The T/C (dose: 5.0 mg/kg/injection, schedule: Q01DX010 (ip), vehicle: carboxymethylcellulose (CMC)) was 157 % of control, the T/C (dose: 5.0 mg/kg/injection, schedule: Q01DX010 (ip), vehicle: saline) was 122 % of control and the T/C (dose: 6.0 mg/kg/injection, schedule: Q01DX010 (ip), vehicle: carboxymethylcellulose (CMC)) was 163 % of control. The T/C (dose: 8.0 mg/kg/injection, schedule: Q01DX009 (ip), vehicle: carboxymethylcellulose (CMC)) was 117 % of control, the T/C (dose: 8.0 mg/kg/injection, schedule: Q01DX010 (ip), vehicle: carboxymethylcellulose (CMC)) was 157 % of control and the T/C (dose: 12.0 mg/kg/injection, schedule: Q01DX010 (ip), vehicle: carboxymethylcellulose (CMC)) was 118 % of control. The T/C (dose: 18.0 mg/kg/injection, schedule: Q01DX010 (ip), vehicle: saline) was 109 % of control, the T/C (dose: 27.0 mg/kg/injection, schedule: Q01DX010 (ip), vehicle: carboxymethylcellulose (CMC)) was 105 % of control and the T/C (dose: 40.0 mg/kg/injection, schedule: Q01DX010 (ip), vehicle: saline) was 100 % of control.
For C=C1C(=O)OC2/C=C(\C)C3(O)OC(C)(CC(OC(=O)C(C)C)C12)CC3O (configuration not stated), the T/C (dose: 10.0 mg/kg/injection, schedule: Q01DX009 (ip), vehicle: saline) was 96 % of control and the T/C (dose: 40.0 mg/kg/injection, schedule: Q01DX009 (ip), vehicle: saline) was 96 % of control.
C[C@H]1/C(=C/C(=O)OCCN(C)C)CC[C@H]2[C@H]1C(=O)C[C@H]1C(C)(C)[C@@H](O)CC[C@]21C was tested, and the T/C (dose: 4.0 mg/kg/injection, schedule: Q01DX010 (ip), vehicle: saline) was 100 % of control, the T/C (dose: 8.0 mg/kg/injection, schedule: Q01DX010 (ip), vehicle: saline) was 100 % of control and the T/C (dose: 16.0 mg/kg/injection, schedule: Q01DX010 (ip), vehicle: saline) was 104 % of control. For the same compound, the T/C (dose: 32.0 mg/kg/injection, schedule: Q01DX010 (ip), vehicle: saline) was 95 % of control and 104 % of control.
In the case of OCCNCCN1CCN(CCCN2c3ccccc3Sc3ccc(C(F)(F)F)cc32)CC1, the T/C (dose: 6.25 mg/kg/injection, schedule: Q04DX003 (ip), vehicle: saline) is reported as 104 % of control, the T/C (dose: 12.5 mg/kg/injection, schedule: Q04DX003 (ip), vehicle: saline) is reported as 110 % of control and the T/C (dose: 25.0 mg/kg/injection, schedule: Q04DX003 (ip), vehicle: saline) is reported as 91 % of control and 110 % of control. For the same compound, the T/C (dose: 50.0 mg/kg/injection, schedule: Q04DX003 (ip), vehicle: saline) was 91 % of control.
For C[As](C)SCC1OC2OC(C)(C)OC2C2OC(C)(C)OC12 (configuration not stated), the T/C [5] was 110 % of control and 123 % of control.
O=C(Cc1ccccc1)OCCc1ccccc1 was tested, and the T/C (dose: 12.5 mg/kg/injection, schedule: Q01DX009 (ip), vehicle: Klucel (hydroxypropylcellulose) (HPC)) was 109 % of control, the T/C (dose: 25.0 mg/kg/injection, schedule: Q01DX009 (ip), vehicle: Klucel (hydroxypropylcellulose) (HPC)) was 109 % of control and the T/C [6] was 95 % of control. The T/C [7] was 109 % of control, the T/C [8] was 100 % of control and the T/C [9] was 100 % of control.
In the case of COC1CC(N=[N+]=[N-])C(O)C(C)O1 (configuration not stated), the T/C [2] is reported as 118 % of control and 101 % of control, the T/C [3] is reported as 110 % of control and 101 % of control and the T/C [4] is reported as 118 % of control and 93 % of control. The T/C (dose: 500.0 mg/kg/injection, schedule: Q04DX003 (ip), vehicle: saline with Tween-80) was 109 % of control.
For O=C1CN(CCc2ccccc2)CC(=O)N2C(c3ccccc3)CCCN12 (configuration not stated), the T/C (dose: 50.0 mg/kg/injection, schedule: Q01DX005 (ip), vehicle: saline with Tween-80) was 94 % of control, the T/C (dose: 100.0 mg/kg/injection, schedule: Q01DX005 (ip), vehicle: saline with Tween-80) was 97 % of control and the T/C (dose: 200.0 mg/kg/injection, schedule: Q01DX005 (ip), vehicle: saline with Tween-80) was 97 % of control.
For CS(=O)/C=C(\c1ccccc1)c1cccs1 (configuration not stated), the T/C [5] was 96 % of control and the T/C (dose: 100.0 mg/kg/injection, schedule: Q01DX009 (ip), vehicle: saline with Tween-80) was 100 % of control.
O=[N+]([O-])C(Br)(c1ccccc1)S(=O)(=O)Cc1ccccc1 (configuration not stated) was tested, and the T/C [7] was 104 % of control, the T/C [8] was 108 % of control and the T/C [9] was 108 % of control.
In the case of CNC(=S)NNc1ccccc1, the T/C [6] is reported as 96 % of control, the T/C (dose: 100.0 mg/kg/injection, schedule: Q01DX009 (ip), vehicle: Klucel (hydroxypropylcellulose) (HPC)) is reported as 91 % of control and the T/C [7] is reported as 90 % of control. The T/C (dose: 200.0 mg/kg/injection, schedule: Q01DX009 (ip), vehicle: Klucel (hydroxypropylcellulose) (HPC)) was 95 % of control, the T/C [8] was 95 % of control and the T/C (dose: 400.0 mg/kg/injection, schedule: Q01DX009 (ip), vehicle: Klucel (hydroxypropylcellulose) (HPC)) was 95 % of control. For the same compound, the T/C [9] was 100 % of control.
